Data taken from patent US8957074B2 (Novartis AG, priority 2010, dated 2015).
Like-named read-outs stand apart in the source and are kept apart here.

What was measured:
[1] = system: phosphorylation of pRb at the Ser780 site in JeKo-1 mantle cell lymphoma cells; assay: CDK4 cellular assay: ELISA of pRb phosphorylation at Ser780 in JeKo-1 cells; type: cell-based
[2] = molecular target: CDK4/cyclin D1 (Homo sapiens (Human), UniProt P11802); assay: CDK4/cyclin D1 enzymatic activity assay (TR-FRET, phosphorylation of pRb at Ser780); type: biochemical; settings: 0.3 nM CDK4/cyclin D1, 150 nM biotin-pRb (773-924), 3 μM ATP, 60 min at 22° C.; read-out: Biochemical CDK4 enzyme IC50
How it was run: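 Phosphorylation at pRb Ser780, detected by TR-FRET, gave IC50s and kinetics. Enzyme: baculovirus/Sf21-expressed human CDK4/cyclin D1. ATP at 3 μM initiated the reaction; EDTA (pH 8.0) stopped it after 60 min at 22° C.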

[3] = molecular target: CDK1/cyclin B (Homo sapiens (Human), UniProt P06493); assay: CDK1/cyclin B enzymatic activity assay (IMAP-FP); type: biochemical; settings: 100 nM Tamra Histone-H1 peptide, 20 μM ATP, 120 min at room temperature, read-out: Biochemical CDK1 enzyme IC50
Source text: CDK1/Cyclin B Enzymatic Activity Assay
A 384-well microtiter IMAP-FP™ (Molecular Devices Trade Mark Technology) endpoint assay was used for CDK1/cyclin B kinase activity measurements. The same assay was used for IC50 determination of small molecule inhibitors.

[4] = Homo sapiens, JeKo-1 cells, p-pRb % inhibition adjusted with total pRb levels, read-out: Normalized cellular ppRb inhibition IC50
[5] = Homo sapiens, JeKo-1 cells, p-pRb Ser780 ELISA, non-normalized, read-out: Cellular ppRb inhibition IC50
[6] = Homo sapiens, JeKo-1, JeKo-1 cells, p-pRb % inhibition adjusted with total pRb levels, read-out: Normalized cellular ppRb inhibition IC50
[7] = Homo sapiens, JeKo-1, JeKo-1 cells, p-pRb Ser780 ELISA, non-normalized, read-out: Cellular ppRb inhibition IC50
[8] = Homo sapiens, JeKo-1, read-out: Cellular ppRb inhibition IC50
[9] = Homo sapiens, JeKo-1, read-out: Normalized cellular ppRb inhibition IC50

Sequence of CDK1/cyclin B (P06493 whole entry, species assumed): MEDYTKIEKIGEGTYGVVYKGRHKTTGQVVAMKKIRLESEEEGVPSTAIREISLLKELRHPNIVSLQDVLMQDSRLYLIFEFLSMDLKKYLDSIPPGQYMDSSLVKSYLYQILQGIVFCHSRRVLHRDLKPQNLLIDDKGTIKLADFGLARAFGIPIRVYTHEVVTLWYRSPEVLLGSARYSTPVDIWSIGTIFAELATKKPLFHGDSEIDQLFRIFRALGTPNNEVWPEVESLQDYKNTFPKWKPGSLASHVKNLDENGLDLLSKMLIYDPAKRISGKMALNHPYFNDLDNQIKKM
Sequence of CDK1/cyclin B (P14635 whole entry partner, species assumed): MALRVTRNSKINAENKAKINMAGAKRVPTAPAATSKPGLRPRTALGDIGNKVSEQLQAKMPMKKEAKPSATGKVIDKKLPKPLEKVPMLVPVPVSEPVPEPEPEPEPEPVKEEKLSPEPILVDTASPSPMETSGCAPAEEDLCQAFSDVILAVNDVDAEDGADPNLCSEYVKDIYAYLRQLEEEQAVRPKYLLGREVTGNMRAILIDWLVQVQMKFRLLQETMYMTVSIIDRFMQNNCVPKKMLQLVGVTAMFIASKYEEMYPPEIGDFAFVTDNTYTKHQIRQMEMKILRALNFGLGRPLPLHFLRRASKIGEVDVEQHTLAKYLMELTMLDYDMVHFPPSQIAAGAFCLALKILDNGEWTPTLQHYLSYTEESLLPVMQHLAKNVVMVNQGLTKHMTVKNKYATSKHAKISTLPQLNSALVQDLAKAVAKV
Sequence of CDK4/cyclin D1 (P11802 whole entry): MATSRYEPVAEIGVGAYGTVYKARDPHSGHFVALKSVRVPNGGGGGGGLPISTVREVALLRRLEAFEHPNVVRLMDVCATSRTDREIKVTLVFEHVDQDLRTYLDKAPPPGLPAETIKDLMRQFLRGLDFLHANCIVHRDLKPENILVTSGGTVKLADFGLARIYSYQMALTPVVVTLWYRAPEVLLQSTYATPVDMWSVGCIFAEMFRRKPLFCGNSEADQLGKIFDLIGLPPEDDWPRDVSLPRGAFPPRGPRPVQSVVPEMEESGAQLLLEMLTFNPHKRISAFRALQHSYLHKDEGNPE
Sequence of CDK4/cyclin D1 (P24385 whole entry partner): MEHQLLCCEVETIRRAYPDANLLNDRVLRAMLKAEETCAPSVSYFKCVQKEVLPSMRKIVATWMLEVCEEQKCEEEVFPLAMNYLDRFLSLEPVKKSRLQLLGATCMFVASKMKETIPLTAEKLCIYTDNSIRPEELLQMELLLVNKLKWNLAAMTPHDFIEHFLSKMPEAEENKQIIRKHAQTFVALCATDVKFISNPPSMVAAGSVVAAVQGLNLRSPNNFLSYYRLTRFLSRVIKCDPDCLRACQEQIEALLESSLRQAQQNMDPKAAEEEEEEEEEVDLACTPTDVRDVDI

## CN(C)C(=O)c1cc2cnc(Nc3ccc(N4CCN5CCCCC5C4=O)cn3)nc2n1C1CCCCC1 (centres unmarked) [Example 100, 7-Cyclohexyl-2-[5-(1-oxo-octahydro-pyrido[1,2-a]pyrazin-2-yl)-pyridin-2-ylamino]-7H-pyrrolo[2,3-d]pyrimidine-6-carboxylic acid dimethylamide]
[1]; [4]
  IC50: 218 nM
[1]; [5]
  IC50: 188 nM
[2]
  IC50: 35 nM
[3]; […] CDK1/cyclin B
  IC50: > 15000 nM

## CN(C)C(=O)c1cc2cnc(Nc3ccc(N4CC5(CC6CCC(C5)N6)OC4=O)cn3)nc2n1C1CCCC1 [Example 101, 7-cyclopentyl-N,N-dimethyl-2-(5-((1R,3r, 5S)-2′-oxo-8-azaspiro[bicyclo[3.2.1]octane-3,5′-oxazolidine]-3′-yl)pyridin-2-ylamino)-7H-pyrrolo[2,3-d]pyrimidine-6-carboxamide]
[1]; [4]
  IC50: 110 nM
[1]; [5]
  IC50: 58 nM
[2]
  IC50: 20 nM
[3]; […] CDK1/cyclin B
  IC50: > 15000 nM

## CN(C)C(=O)c1cc2cnc(Nc3ccc(N4CC5(CC6CCC(C5)N6C)OC4=O)cn3)nc2n1C1CCCC1 [Example 102, 7-cyclopentyl-N,N-dimethyl-2-(5-((1R,3r,5S)-8-methyl-2′-oxo-8-azaspiro[bicyclo[3.2.1]octane-3,5′-oxazolidine]-3′-yl)pyridin-2-ylamino)-7H-pyrrolo[2,3-d]pyrimidine-6-carboxamide]
[1]; [6]
  IC50: 71 nM
[1]; [7]
  IC50: 39 nM
[2]
  IC50: 18 nM
[3]; […] CDK1/cyclin B
  IC50: > 15000 nM

## CN(C)C(=O)c1cc2cnc(Nc3ccc(N4CC5(CCCNCC5)OC4=O)cn3)nc2n1C1CCCC1 (centres unmarked) [Example 103, 7-cyclopentyl-N,N-dimethyl-2-(5-(2-oxo-1-oxa-3,8-diazaspiro[4.6]undecan-3-yl)pyridin-2-ylamino)-7H-pyrrolo[2,3-d]pyrimidine-6-carboxamide]
[1]; [4]
  IC50: 64 to 169 nM
[1]; [5]
  IC50: 24 to 72 nM
[2]
  IC50: 17 nM
[3]; […] CDK1/cyclin B
  IC50: > 15000 nM

## CN1CCCC2(CC1)CN(c1ccc(Nc3ncc4cc(C(=O)N(C)C)n(C5CCCC5)c4n3)nc1)C(=O)O2 (centres unmarked) [Example 104, 7-Cyclopentyl-2-[5-(8-methyl-2-oxo-1-oxa-3,8-diaza-spiro[4.6]undec-3-yl)-pyridin-2-ylamino]-7H-pyrrolo[2,3-d]pyrimidine-6-carboxylic acid dimethylamide]
[1]; [4]
  IC50: 64 nM
[1]; [5]
  IC50: 29 nM
[2]
  IC50: 20 nM
[3]; […] CDK1/cyclin B
  IC50: > 15000 nM

## CN(C)C(=O)c1cc2cnc(Nc3ccc(N4C[C@@]5(CCCNCC5)OC4=O)cn3)nc2n1C1CCCC1 [Example 105, 7-Cyclopentyl-2-[5-((S)-2-oxo-1-oxa-3,8-diaza-spiro[4.6]undec-3-yl)-pyridin-2-ylamino]-7H-pyrrolo[2,3-d]pyrimidine-6-carboxylic acid dimethylamide]
[1]; [4]
  IC50: 100 nM
[1]; [5]
  IC50: 61 nM
[2]
  IC50: 12 nM
[3]; […] CDK1/cyclin B
  IC50: > 15000 nM

## CN(C)C(=O)c1cc2cnc(Nc3ccc(N4C[C@]5(CCCNCC5)OC4=O)cn3)nc2n1C1CCCC1 [Example 106, 7-Cyclopentyl-2-[5-((R)-2-oxo-1-oxa-3,8-diaza-spiro[4.6]undec-3-yl)-pyridin-2-ylamino]-7H-pyrrolo[2,3-d]pyrimidine-6-carboxylic acid dimethylamide]
[1]; [4]
  IC50: 114 nM
[1]; [5]
  IC50: 70 nM
[2]
  IC50: 15 nM
[3]; […] CDK1/cyclin B
  IC50: > 15000 nM

## CN(C)C(=O)c1cc2cnc(Nc3ccc(N4CC5(CCCNC5)OC4=O)cn3)nc2n1C1CCCC1 (centres unmarked) [Example 107, 7-cyclopentyl-N,N-dimethyl-2-(5-(2-oxo-1-oxa-3,7-diazaspiro[4.5]decan-3-yl)pyridin-2-ylamino)-7H-pyrrolo[2,3-d]pyrimidine-6-carboxamide]
[1]; [4]
  IC50: 37 to 114 nM
[1]; [5]
  IC50: 13 to 49 nM
[2]
  IC50: 9 nM
[3]; […] CDK1/cyclin B
  IC50: > 15000 nM

## CN1CCCC2(C1)CN(c1ccc(Nc3ncc4cc(C(=O)N(C)C)n(C5CCCC5)c4n3)nc1)C(=O)O2 (centres unmarked) [Example 108, 7-cyclopentyl-N,N-dimethyl-2-(5-(7-methyl-2-oxo-1-oxa-3,7-diazaspiro[4.5]decan-3-yl)pyridin-2-ylamino)-7H-pyrrolo[2,3-d]pyrimidine-6-carboxamide]
[1]; [6]
  IC50: 69 nM
[1]; [7]
  IC50: 61 nM
[2]
  IC50: 13 nM
[3]; […] CDK1/cyclin B
  IC50: > 15000 nM

## CN(C)C(=O)c1cc2cnc(Nc3ccc(N4C[C@@]5(CCCNC5)OC4=O)cn3)nc2n1C1CCCC1 [Example 109, 7-Cyclopentyl-2-[5-((S)-2-oxo-1-oxa-3,7-diaza-spiro[4.5]dec-3-yl)-pyridin-2-ylamino]-7H-pyrrolo[2,3-d]pyrimidine-6-carboxylic acid dimethylamide]
[1]; [4]
  IC50: 75 nM
[1]; [5]
  IC50: 48 nM
[2]
  IC50: 12 nM
[3]; […] CDK1/cyclin B
  IC50: > 15000 nM

## CN(C)C(=O)c1cc2cnc(Nc3ccc(N4C[C@]5(CCCNC5)OC4=O)cn3)nc2n1C1CCCC1 [Example 110, 7-Cyclopentyl-2-[5-((R)-2-oxo-1-oxa-3,7-diaza-spiro[4.5]dec-3-yl)-pyridin-2-ylamino]-7H-pyrrolo[2,3-d]pyrimidine-6-carboxylic acid dimethylamide]
[1]; [4]
  IC50: 62 nM
[1]; [5]
  IC50: 41 nM
[2]
  IC50: 8 nM
[3]; […] CDK1/cyclin B
  IC50: > 15000 nM

## CN(C)C(=O)c1cc2cnc(Nc3ccc(N4CC5CC4CN5)cn3)nc2n1C1CCCC1 (centres unmarked) [Example 111, 7-Cyclopentyl-2-[5-(2,5-diaza-bicyclo[2.2.1]hept-2-yl)-pyridin-2-ylamino]-7H-pyrrolo[2,3-d]pyrimidine-6-carboxylic acid dimethylamide]
[1]; [4]
  IC50: 452 nM
[1]; [5]
  IC50: 371 nM
[2]
  IC50: 41 nM
[3]; […] CDK1/cyclin B
  IC50: 9170 nM

## CN(C)C(=O)c1cc2cnc(Nc3ccc(N4CC5CCC(C4)N5)cn3)nc2n1C1CCCC1 [Example 112, 7-Cyclopentyl-2-[5-(3,8-diaza-bicyclo[3.2.1]oct-3-yl)pyridin-2-ylamino]-7H-pyrrolo[2,3-d]pyrimidine-6-carboxylic acid dimethylamide]
[1]; [4]
  IC50: 231 nM
[1]; [5]
  IC50: 92 nM
[2]
  IC50: 11 to 34 nM
[3]; […] CDK1/cyclin B
  IC50: > 15000 nM

## CN(C)C(=O)c1cc2cnc(Nc3ccc(N4CCCC5(CCNCC5)C4=O)cn3)nc2n1C1CCCC1 [Example 114, 7-Cyclopentyl-2-[5-(1-oxo-2,9-diaza-spiro[5,5]undec-2-yl)-pyridin-2-ylamino]-7H-pyrrolo[2,3-d]pyrimidine-6-carboxylic acid dimethylamide]
[1]; [8]
  IC50: 1350 nM
[1]; [9]
  IC50: 7100 nM
[2]
  IC50: 190 nM
[3]; 0.25 nM CDK1/cyclin B
  IC50: > 15000 nM

## CN(C)C(=O)c1cc2cnc(Nc3ccc(N4CCN5CCCC5C4=O)cn3)nc2n1C1CCCC1 (centres unmarked) [Example 115]
[1]; [6]
  IC50: 369 to 407 nM
[1]; [7]
  IC50: 135 to 306 nM
[2]
  IC50: 20 to 51 nM
[3]; 0.25 nM CDK1/cyclin B
  IC50: > 15000 nM

## CN(C)C(=O)c1cc2cnc(Nc3ccc(N4CCN5CCCC5C4)cn3)nc2n1C1CCCC1 (centres unmarked) [Example 116, 7-cyclopentyl-2-(5-(hexahydropyrrolo[1,2-a]pyrazin-2(1H)-yl)pyridin-2-ylamino)-N,N-dimethyl-7H-pyrrolo[2,3-d]pyrimidine-6-carboxamide]
[1]; [8]
  IC50: 604 nM
[1]; [9]
  IC50: 605 nM
[2]
  IC50: 110 nM
[3]; […] CDK1/cyclin B
  IC50: > 15000 nM

## CN(C)C(=O)c1cc2cnc(Nc3ccc(N4CCC5(CCNCC5)C4=O)cn3)nc2n1C1CCCC1 [Example 117, 7-cyclopentyl-N,N-dimethyl-2-(5-(1-oxo-2,8-diazaspiro[4.5]decan-2-yl)pyridin-2-ylamino)-7H-pyrrolo[2,3-d]pyrimidine-6-carboxamide]
[1]; JeKo-1 cells, p-pRb % inhibition adjusted with total pRb levels, read-out: Normalized cellular ppRb inhibition IC50
  IC50: 51 to 82 nM
[1]; JeKo-1 cells, p-pRb Ser780 ELISA, non-normalized, read-out: Cellular ppRb inhibition IC50
  IC50: 40 to 67 nM
[2]
  IC50: 7 to 9 nM
[3]; […] CDK1/cyclin B
  IC50: > 15000 nM

## CN(C)C(=O)c1cc2cnc(Nc3ccc(N4CC5(CC4=O)CC4CCC(C5)N4)cn3)nc2n1C1CCCC1 (centres unmarked) [Example 118, 7-cyclopentyl-N,N-dimethyl-2-(5-(5′-oxo-8-azaspiro[bicyclo[3.2.1]octane-3,3′-pyrrolidine]-1′-yl)pyridin-2-ylamino)-7H-pyrrolo[2,3-d]pyrimidine-6-carboxamide]
[1]; [4]
  IC50: 47 to 153 nM
[1]; [5]
  IC50: 34 to 147 nM
[2]
  IC50: 5 to 14 nM
[3]; […] CDK1/cyclin B
  IC50: > 15000 nM

## CN(C)C(=O)c1cc2cnc(Nc3ccc(N4CC5(CCNCC5)OC4=O)cn3)nc2n1C1CCCC1 [Example 119, 7-cyclopentyl-N,N-dimethyl-2-(5-(2-oxo-1-oxa-3,8-diazaspiro[4.5]decan-3-yl)pyridin-2-ylamino)-7H-pyrrolo[2,3-d]pyrimidine-6-carboxamide]
[1]; [4]
  IC50: 72 to 83 nM
[1]; [5]
  IC50: 26 to 47 nM
[2]
  IC50: 12 nM
[3]; […] CDK1/cyclin B
  IC50: > 15000 nM

## CN(C)C(=O)c1cc2cnc(Nc3ccc(N4CC5(CC4=O)CC4CCC(C5)N4)cn3)nc2n1C1CCCOC1 (centres unmarked) [Example 120, N,N-dimethyl-2-(5-(5′-oxo-8-azaspiro[bicyclo[3.2.1]octane-3,3′-pyrrolidine]-1′-yl)pyridin-2-ylamino)-7-(tetrahydro-2H-pyran-3-yl)-7H-pyrrolo[2,3-d]pyrimidine-6-carboxamide]
[1]; [4]
  IC50: 1030 nM
[1]; [5]
  IC50: 677 nM
[2]
  IC50: 66 nM
[3]; […] CDK1/cyclin B
  IC50: > 15000 nM
